# Results published in PubChem BioAssay AID2060600 (Molecular Pharmacology Branch, DTP, NCI, 2025).
# Values joined by “and” are separate entries in the source; they are usually repeats but may differ in a detail not shown here. Identical values can stand only once.
# System: 996289-038-R-J1-PDC complex spheroid viability
# Assay: Anticancer human tumor 996289-038-R-J1-PDC patient-derived colon adenocarcinoma cell line growth inhibition [CLK]
# Settings: for viability, T/C: stronger effect = lower value
# Summary of the method: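 Patient-derived tumor cells grown as complex spheroids with HUVEC endothelial cells and mesenchymal stem cells, treated with drug combinations. Concentrations descend in half-log steps from near clinical Cmax, or from 10 microM if Cmax unknown.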
# [1] = curve of first compound, second compound 0.0316 µM
# [2] = curve of first compound, second compound 0.1 µM
# [3] = curve of first compound, second compound 0.316 µM
# [4] = curve of first compound, second compound 1 µM
# [5] = curve of first compound, second compound 3.16 µM
# [6] = curve of first compound, second compound 10 µM
# [7] = second compound 0.0316 µM, first compound 0.0316 µM
# [8] = second compound 0.0316 µM, first compound 0.1 µM
# [9] = second compound 0.0316 µM, first compound 0.316 µM
# [10] = second compound 0.0316 µM, first compound 1 µM
# [11] = second compound 0.0316 µM, first compound 3.16 µM
# [12] = second compound 0.0316 µM, first compound 10 µM
# [13] = second compound 0.1 µM, first compound 0.0316 µM
# [14] = second compound 0.1 µM, first compound 0.1 µM
# [15] = second compound 0.1 µM, first compound 0.316 µM
# [16] = second compound 0.1 µM, first compound 1 µM
# [17] = second compound 0.1 µM, first compound 3.16 µM
# [18] = second compound 0.1 µM, first compound 10 µM
# [19] = second compound 0.316 µM, first compound 0.0316 µM
# [20] = second compound 0.316 µM, first compound 0.1 µM
# [21] = second compound 0.316 µM, first compound 0.316 µM
# [22] = second compound 0.316 µM, first compound 1 µM
# [23] = second compound 0.316 µM, first compound 3.16 µM
# [24] = second compound 0.316 µM, first compound 10 µM
# [25] = second compound 1 µM, first compound 0.0316 µM
# [26] = second compound 1 µM, first compound 0.1 µM
# [27] = second compound 1 µM, first compound 0.316 µM
# [28] = second compound 1 µM, first compound 1 µM
# [29] = second compound 1 µM, first compound 3.16 µM
# [30] = second compound 1 µM, first compound 10 µM
# [31] = second compound 3.16 µM, first compound 0.0316 µM
# [32] = second compound 3.16 µM, first compound 0.1 µM
# [33] = second compound 3.16 µM, first compound 0.316 µM
# [34] = second compound 3.16 µM, first compound 1 µM
# [35] = second compound 3.16 µM, first compound 3.16 µM
# [36] = second compound 3.16 µM, first compound 10 µM
# [37] = second compound 10 µM, first compound 0.0316 µM
# [38] = second compound 10 µM, first compound 0.1 µM
# [39] = second compound 10 µM, first compound 0.316 µM
# [40] = second compound 10 µM, first compound 1 µM
# [41] = second compound 10 µM, first compound 3.16 µM
# [42] = second compound 10 µM, first compound 10 µM
# 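Further: spheroids exposed to the agents for 7 days before readout.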
structure (smiles),measurement,setting,value
C=C(F)C(=O)N1CCN(c2nc(OCC3CCCN3C)nc3c2CCN(c2cccc4cccc(Cl)c24)C3)CC1CC#N (stereo unspecified),"viability, T/C",compound 0.0316 µM,100% and 113%
same,"viability, T/C",compound 0.1 µM,91.7% and 107%
same,"viability, T/C",compound 0.316 µM,100% and 101%
same,"viability, T/C",compound 1 µM,108% and 101%
same,"viability, T/C",compound 3.16 µM,78.5% and 76%
same,"viability, T/C",compound 10 µM,1.09% and 1.7%
same,IC50,curve of compound,4830 nM and 4710 nM
Nc1ccn(C2OC(CO)C(O)C2(F)F)c(=O)n1 (stereo unspecified) + CN1CCN(c2cc(C(=O)Nc3cc4cc(-c5cnn(C)c5)ccc4cn3)ccn2)CC1,IC50,[1],851 nM
same,IC50,[2],406 nM
same,IC50,[3],130 nM
same,IC50,[4],< 31.6 nM
same,IC50,[5],< 31.6 nM
same,IC50,[6],< 31.6 nM
same,"viability, T/C",[7],86.7%
same,"viability, T/C",[8],62.6%
same,"viability, T/C",[9],54.5%
same,"viability, T/C",[10],51.5%
same,"viability, T/C",[11],49.1%
same,"viability, T/C",[12],43.4%
same,"viability, T/C",[13],74.6%
same,"viability, T/C",[14],56.4%
same,"viability, T/C",[15],53.2%
same,"viability, T/C",[16],46.9%
same,"viability, T/C",[17],41.2%
same,"viability, T/C",[18],35.8%
same,"viability, T/C",[19],57.7%
same,"viability, T/C",[20],52%
same,"viability, T/C",[21],43.3%
same,"viability, T/C",[22],39.2%
same,"viability, T/C",[23],36.2%
same,"viability, T/C",[24],26%
same,"viability, T/C",[25],4.69%
same,"viability, T/C",[26],4.7%
same,"viability, T/C",[27],3.37%
same,"viability, T/C",[28],6.26%
same,"viability, T/C",[29],3.39%
same,"viability, T/C",[30],3.71%
same,"viability, T/C",[31],1.41%
same,"viability, T/C",[32],1.07%
same,"viability, T/C",[33],1.65%
same,"viability, T/C",[34],1%
same,"viability, T/C",[35],1.01%
same,"viability, T/C",[36],2.06%
same,"viability, T/C",[37],0.95%
same,"viability, T/C",[38],1.01%
same,"viability, T/C",[39],0.41%
same,"viability, T/C",[40],1.58%
same,"viability, T/C",[41],0.37%
same,"viability, T/C",[42],0.35%
Nc1ccn(C2OC(CO)C(O)C2(F)F)c(=O)n1 (stereo unspecified),"viability, T/C",compound 0.0316 µM,82% and 89.3%
same,"viability, T/C",compound 0.1 µM,62.9% and 70.5%
same,"viability, T/C",compound 0.316 µM,62.4% and 68.2%
same,"viability, T/C",compound 1 µM,55.8% and 65.7%
same,"viability, T/C",compound 3.16 µM,54.8% and 69.3%
same,"viability, T/C",compound 10 µM,47% and 59%
same,IC50,curve of compound,> 10000 nM
COc1cccc2c1C(=O)c1c(O)c3c(c(O)c1C2=O)CC(O)(C(=O)CO)CC3OC1CC(N)C(O)C(C)O1 (stereo unspecified) + CN1CCN(c2cc(C(=O)Nc3cc4cc(-c5cnn(C)c5)ccc4cn3)ccn2)CC1,IC50,[1],1400 nM
same,IC50,[2],775 nM
same,IC50,[3],218 nM
same,IC50,[4],< 31.6 nM
same,IC50,[5],< 31.6 nM
same,IC50,[6],< 31.6 nM
same,"viability, T/C",[7],89.6%
same,"viability, T/C",[8],91.8%
same,"viability, T/C",[9],71.9%
same,"viability, T/C",[10],52.5%
same,"viability, T/C",[11],45.2%
same,"viability, T/C",[12],33.8%
same,"viability, T/C",[13],89.3%
same,"viability, T/C",[14],83.5%
same,"viability, T/C",[15],60.2%
same,"viability, T/C",[16],44.5%
same,"viability, T/C",[17],40.6%
same,"viability, T/C",[18],26.3%
same,"viability, T/C",[19],67.8%
same,"viability, T/C",[20],56.9%
same,"viability, T/C",[21],42.1%
same,"viability, T/C",[22],38.6%
same,"viability, T/C",[23],33.6%
same,"viability, T/C",[24],16.1%
same,"viability, T/C",[25],4.05%
same,"viability, T/C",[26],4.33%
same,"viability, T/C",[27],4.01%
same,"viability, T/C",[28],3.89%
same,"viability, T/C",[29],4.94%
same,"viability, T/C",[30],7.17%
same,"viability, T/C",[31],0.81%
same,"viability, T/C",[32],1.53%
same,"viability, T/C",[33],2.41%
same,"viability, T/C",[34],2.9%
same,"viability, T/C",[35],5.23%
same,"viability, T/C",[36],5.47%
same,"viability, T/C",[37],1.39%
same,"viability, T/C",[38],0.35%
same,"viability, T/C",[39],0.5%
same,"viability, T/C",[40],0.45%
same,"viability, T/C",[41],0.53%
same,"viability, T/C",[42],0.61%
CCCS(=O)(=O)Nc1ccc(F)c(C(=O)c2c[nH]c3ncc(-c4ccc(Cl)cc4)cc23)c1F,"viability, T/C",compound 0.0316 µM,95.8% and 104%
same,"viability, T/C",compound 0.1 µM,87.2% and 87.3%
same,"viability, T/C",compound 0.316 µM,94.7% and 101%
same,"viability, T/C",compound 1 µM,103% and 110%
same,"viability, T/C",compound 3.16 µM,94.8% and 101%
same,"viability, T/C",compound 10 µM,77.8% and 67.8%
same,IC50,curve of compound,> 10000 nM
CCc1c2c(nc3ccc(O)cc13)-c1cc3c(c(=O)n1C2)COC(=O)[C@]3(O)CC + CNC(=O)c1ccc(Nc2nc(OC3CCCC3)c3c(-c4ccc5nc(C)oc5c4)c[nH]c3n2)c(OC)c1,IC50,[1],203 nM
same,IC50,[2],239 nM
same,IC50,[3],72.3 nM
same,IC50,[4],15.8 nM
same,IC50,[5],8.28 nM
same,IC50,[6],8.57 nM
same,"viability, T/C","second compound 0.0316 µM, first compound 0.00316 µM",115%
same,"viability, T/C","second compound 0.0316 µM, first compound 0.01 µM",89.4%
same,"viability, T/C",[7],63.3%
same,"viability, T/C",[8],61.6%
same,"viability, T/C",[9],48.8%
same,"viability, T/C",[10],29.3%
same,"viability, T/C","second compound 0.1 µM, first compound 0.00316 µM",110%
same,"viability, T/C","second compound 0.1 µM, first compound 0.01 µM",96.2%
same,"viability, T/C",[13],69.9%
same,"viability, T/C",[14],63.3%
same,"viability, T/C",[15],49%
same,"viability, T/C",[16],31.6%
same,"viability, T/C","second compound 0.316 µM, first compound 0.00316 µM",77.4%
same,"viability, T/C","second compound 0.316 µM, first compound 0.01 µM",68.1%
same,"viability, T/C",[19],56.2%
same,"viability, T/C",[20],48.1%
same,"viability, T/C",[21],35.6%
same,"viability, T/C",[22],21.9%
same,"viability, T/C","second compound 1 µM, first compound 0.00316 µM",60.8%
same,"viability, T/C","second compound 1 µM, first compound 0.01 µM",52.1%
same,"viability, T/C",[25],46.6%
same,"viability, T/C",[26],33.1%
same,"viability, T/C",[27],25.1%
same,"viability, T/C",[28],13.5%
same,"viability, T/C","second compound 3.16 µM, first compound 0.00316 µM",55.5%
same,"viability, T/C","second compound 3.16 µM, first compound 0.01 µM",50.2%
same,"viability, T/C",[31],39%
same,"viability, T/C",[32],31.2%
same,"viability, T/C",[33],22%
same,"viability, T/C",[34],12.8%
same,"viability, T/C","second compound 10 µM, first compound 0.00316 µM",54.6%
same,"viability, T/C","second compound 10 µM, first compound 0.01 µM",52%
same,"viability, T/C",[37],38.9%
same,"viability, T/C",[38],32.8%
same,"viability, T/C",[39],23.7%
same,"viability, T/C",[40],10.8%
CC(=O)O[C@H]1C(=O)[C@@]2(C)[C@H]([C@H](OC(=O)c3ccccc3)[C@]3(O)C[C@H](OC(=O)[C@H](O)[C@@H](NC(=O)c4ccccc4)c4ccccc4)C(C)=C1C3(C)C)[C@]1(OC(C)=O)CO[C@@H]1C[C@@H]2O,"viability, T/C",compound 0.0316 µM,94.2% and 106%
same,"viability, T/C",compound 0.1 µM,85.8% and 89.7%
same,"viability, T/C",compound 0.316 µM,68.7% and 72.4%
same,"viability, T/C",compound 1 µM,59.8% and 63.7%
same,"viability, T/C",compound 3.16 µM,58.6% and 73%
same,"viability, T/C",compound 10 µM,61.5% and 67.2%
same,IC50,curve of compound,> 10000 nM
COc1c(OCCCN2CCOCC2)ccc2c3n(c(=NC(=O)c4cnc(N)nc4)nc12)CCN3,"viability, T/C",compound 0.00316 µM,87.7% and 97.2%
same,"viability, T/C",compound 0.01 µM,75.6% and 64.2%
same,"viability, T/C",compound 0.0316 µM,66.9% and 64.2%
same,"viability, T/C",compound 0.1 µM,45.9% and 46.1%
same,"viability, T/C",compound 0.316 µM,31.9% and 30.1%
same,"viability, T/C",compound 1 µM,20.4% and 22.4%
same,IC50,curve of compound,83.6 nM and 64.5 nM
